Where “and” joins values, the source holds several entries; their conditions need not be identical. Identical values can stand only once.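 Dose response: 5 concentrations. Exposure: 48 h. Format: 96-well plates. Endpoint: linear interpolation; highest concentration if not reached. At the GI50, growth is halved. The concentration for full growth arrest is given as TGI.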

The subject of the first assay is K-562 leukemia. Kind of assay: inhibition of tumour cell growth, NCI panel, 48 h.
For `O=C(CN1CCOCC1)Nc1ccc(Cn2nnc3c2C(=O)c2nnn(Cc4ccc(NC(=O)CN5CCOCC5)cc4)c2C3=O)cc1`, the GI50 was 0.745 µM and the TGI is greater than 100 µM.
On the same counts, the results for `CCCCC/C(C=C(C#N)C#N)=C/c1ccccc1` are 3.8 µM and 35.3 µM.
In turn, `CC1CCC2(C(=O)O)CCC3(C)C(=CCC4C5(C)CC(O)C(O)C(C)(CO)C5C(O)CC43C)C2C1C` (stereo unspecified) showed a TGI greater than 100 µM.
The same measure, in the same setting: then `COc1cnc2cc(C(=O)O)c3c([N+](=O)[O-])cccc3c2c1`, with greater than 100 µM.
For `Cc1ccc(S(=O)(=O)N(CCOc2ccc(/C(N)=N/Cl)cc2)CCOc2ccc(/C(N)=N\Cl)cc2)cc1`, the GI50 is 4.17 µM and the TGI was 24 µM.
For `COc1ccc(C2=NN(C(=O)c3cc(OC)c(OC)c(OC)c3)C(c3ccc(C#N)cc3)C2)cc1OC` (stereo unspecified), the GI50 is 0.889 µM and the TGI is greater than 100 µM.
On the same counts, the results for `CCOc1cccc(/C=N/NC(=O)c2ccccc2Nc2ccnc(C(F)(F)F)c2)c1O` are 0.322 µM and 10.4 µM.
Turning to `CCOC(=O)/C=C(/C(=O)OCC)n1cc(Cl)c(=O)n(CC(=O)OCC)c1=O`, the GI50 is 4.24 µM; the TGI is 25 µM and > 100 µM.

Another assay deals with KM12 colon. In words: inhibition of tumour cell growth, NCI panel, 48 h.
On to `COc1cccc(/C=N/NC(=O)c2ccccc2Nc2ccnc(C(F)(F)F)c2)c1O`, for which the GI50 is 0.457 µM and the TGI was greater than 56.4 µM.
On the same counts, the results for `Cc1ccc(CS/C(=C\c2ccc([N+](=O)[O-])cc2)C(=O)c2ccc(F)cc2)cc1` are 2.16 µM and 5.13 µM.
`CCOC(=O)CCc1cc(=O)oc2cc(O)cc(O)c12` returned a TGI greater than 100 µM.
On to `COC(=O)c1cc2c3ccccc3[nH]c2c2ncccc12`, for which the GI50 was 81.1 µM and the TGI is greater than 100 µM.
Consider `CNC(=O)OCc1c(COC(=O)NC)c(-c2ccc(Cl)c(Cl)c2)n2c1SCC2`, for which the TGI was determined as 36.8 µM.
Regarding `C[C@]12CC[C@H](O)CC1=CC[C@@H]1[C@@H]2CC[C@]2(C)C(c3cccnc3)=CC[C@@H]12`, the GI50 is 76.3 µM and the TGI is greater than 100 µM.
`Cc1ccc2c(c1)C(=O)/C(=C/c1ncc([N+](=O)[O-])n1C)O2`: the GI50 was 1.67 µM and the TGI came out at 5.21 µM.
For the molecule `CC1OC(n2cc(F)c(=O)[nH]c2=O)CCC1O` (stereo unspecified), the TGI is greater than 100 µM.
Consider `O=C(NCCOCCOCCNc1cccc2c1C(=O)N(C1CCCNC1=O)C2=O)c1cc2c(o1)C(=O)c1ccccc1C2=O` (stereo unspecified), for which the GI50 is 2.91 µM and the TGI worked out at 10 µM.
On the same counts, the results for `O=C(CN1CCOCC1)Nc1ccc(Cn2nnc3c2C(=O)c2nnn(Cc4ccc(NC(=O)CN5CCOCC5)cc4)c2C3=O)cc1` are 0.959 µM and 5.23 µM.
`CCCCC/C(C=C(C#N)C#N)=C/c1ccccc1`: the GI50 was 3.37 µM and the TGI came to 13.2 µM.
`CC1CCC2(C(=O)O)CCC3(C)C(=CCC4C5(C)CC(O)C(O)C(C)(CO)C5C(O)CC43C)C2C1C` (stereo unspecified) gave a TGI greater than 100 µM.
For `COc1cnc2cc(C(=O)O)c3c([N+](=O)[O-])cccc3c2c1`, the TGI was greater than 100 µM.
As for `Cc1ccc(S(=O)(=O)N(CCOc2ccc(/C(N)=N/Cl)cc2)CCOc2ccc(/C(N)=N\Cl)cc2)cc1`, the GI50 is 12.4 µM and the TGI is 28.1 µM.
Consider `COc1ccc(C2=NN(C(=O)c3cc(OC)c(OC)c(OC)c3)C(c3ccc(C#N)cc3)C2)cc1OC` (stereo unspecified), for which the GI50 is 1.16 µM and the TGI is greater than 27.3 µM.
Take `CCOc1cccc(/C=N/NC(=O)c2ccccc2Nc2ccnc(C(F)(F)F)c2)c1O`: the GI50 was 0.513 µM and the TGI turned out to be 47.7 µM.
Consider `CCOC(=O)/C=C(/C(=O)OCC)n1cc(Cl)c(=O)n(CC(=O)OCC)c1=O`, for which the GI50 was 21.2 µM; the TGI was > 25 µM and 43.8 µM.

A further assay concerns NCI-H226 lung. Kind of assay: inhibition of tumour cell growth, NCI panel, 48 h.
`COc1cccc(/C=N/NC(=O)c2ccccc2Nc2ccnc(C(F)(F)F)c2)c1O`: the GI50 was 0.571 µM and the TGI is 36.5 µM.
On to `Cc1ccc(CS/C(=C\c2ccc([N+](=O)[O-])cc2)C(=O)c2ccc(F)cc2)cc1`, for which the GI50 is 3.17 µM and the TGI was 15 µM.
Molecule `CCOC(=O)CCc1cc(=O)oc2cc(O)cc(O)c12` yielded a TGI greater than 100 µM.
`COC(=O)c1cc2c3ccccc3[nH]c2c2ncccc12`: the GI50 was greater than 100 µM and the TGI was greater than 100 µM.
`CNC(=O)OCc1c(COC(=O)NC)c(-c2ccc(Cl)c(Cl)c2)n2c1SCC2` displayed a TGI of 2.67 µM.
As for `C[C@]12CC[C@H](O)CC1=CC[C@@H]1[C@@H]2CC[C@]2(C)C(c3cccnc3)=CC[C@@H]12`, the GI50 is greater than 68 µM and the TGI is greater than 100 µM.
For `Cc1ccc2c(c1)C(=O)/C(=C/c1ncc([N+](=O)[O-])n1C)O2` the same measures were 4.62 µM and 17.4 µM.
For the molecule `CC1OC(n2cc(F)c(=O)[nH]c2=O)CCC1O` (stereo unspecified), the TGI is greater than 100 µM.
Take `O=C(NCCOCCOCCNc1cccc2c1C(=O)N(C1CCCNC1=O)C2=O)c1cc2c(o1)C(=O)c1ccccc1C2=O` (stereo unspecified): the GI50 was 1.78 µM and the TGI amounted to 3.95 µM.
For the molecule `O=C(CN1CCOCC1)Nc1ccc(Cn2nnc3c2C(=O)c2nnn(Cc4ccc(NC(=O)CN5CCOCC5)cc4)c2C3=O)cc1`, the GI50 was 1.54 µM and the TGI came out at 3.93 µM.
On the same counts, the results for `CCCCC/C(C=C(C#N)C#N)=C/c1ccccc1` are 8.11 µM and 25.5 µM.
In the case of `CC1CCC2(C(=O)O)CCC3(C)C(=CCC4C5(C)CC(O)C(O)C(C)(CO)C5C(O)CC43C)C2C1C` (stereo unspecified), the TGI is greater than 100 µM.
Same read-out and setting: for `COc1cnc2cc(C(=O)O)c3c([N+](=O)[O-])cccc3c2c1` the value was greater than 100 µM.
As for `Cc1ccc(S(=O)(=O)N(CCOc2ccc(/C(N)=N/Cl)cc2)CCOc2ccc(/C(N)=N\Cl)cc2)cc1`, the GI50 is 59.6 µM and the TGI was greater than 100 µM.
On to `COc1ccc(C2=NN(C(=O)c3cc(OC)c(OC)c(OC)c3)C(c3ccc(C#N)cc3)C2)cc1OC` (stereo unspecified), for which the GI50 was 2.84 µM and the TGI is greater than 55.3 µM.
As to `CCOc1cccc(/C=N/NC(=O)c2ccccc2Nc2ccnc(C(F)(F)F)c2)c1O`, the GI50 was 0.664 µM and the TGI came to 19.1 µM.
With `CCOC(=O)/C=C(/C(=O)OCC)n1cc(Cl)c(=O)n(CC(=O)OCC)c1=O`, the TGI was > 25 µM and 32.5 µM.

(Values after PubChem BioAssay (NCI).)
